Laboratory results from patent publication US7875650B2, “Compounds and methods to increase anti-P-glycoprotein activity of baicalein by alkylation on the A ring” (Yale University, priority 2004, dated 2011).
Where two headings read alike, the source gives them in different places.

Experiments:
P-gp = P-gp (Homo sapiens, UniProt P08183); details: their (Boumendjel et al.) experiments; cited from earlier work
P-gp 170 [1] = biological target: T1, P-gp 170 (Homo sapiens, UniProt P08183)
P-gp 170 [2] = biological target: T1, P-gp 170; test: in vitro; details: for Amax (maximum accumulation of intracellular vinblastine), fold higher than control: human, 60 min
From the text: (§1) The KB/MDR cells, which overexpress human P-gp 170 protein, were used to evaluate the anti-P-gp 170 activity of drugs. […] The concentration of compound required to achieve 50% maximum accumulation of vinblastine is presented as the EC50 value. The maximum accumulation of intracellular vinblastine caused by the compounds in one hour is expressed as Amax (picomoles/10^6 cells). The cell growth inhibitory activity of compounds is presented as the concentration required to inhibit 50% growth of KB or KB/MDR cell lines (IC50) following three days of compound treatment.
(§2) Vinblastine uptake by the KB/MDR cells. KB/MDR cells,^37 which overexpress human P-gp 170 protein, were seeded into 24-well tissue culture plates in RPMI 1640 medium plus 10% fetal bovine serum for 24 hours without the selecting agent doxorubicin (37 nM). The cells were then treated with [^3H]vinblastine plus synthetic flavones in HBSS for 60 minutes. The cells were washed twice with ice-cold PBS, harvested with 1 N NaOH, neutralized with 1 N HCl. The cell aliquots were transferred to scintillation vials and counted with a […] (Beckman, model LS 5000) after adding 10 mL scintillation fluids (SafeScint, American Bioanalytical Co., Natick, Mass.). Data presented are the mean of three independent experiments.

KB cells = test: Growth inhibitory assay, KB cells; assay type: cell-based, human; details: 3 days
Protocol: (§3) The cells were then fixed and stained with methylene blue in 50% MeOH, washed thoroughly with tap water, and dissolved with 0.5 mL 0.5% sarcosyl.^38 The amount of cellular protein, which is proportional to the cell number, is estimated by the absorption (OD595nm). The growth inhibitory assay, which is presented as an IC50 value, represents the concentration of compound required to inhibit 50% of cell growth. The cell doubling time of KB and KB/MDR cells is about 20 to 24 hours. The data presented are the mean of three independent experiments.

KB/MDR cells = test: Growth inhibitory assay, KB/MDR cells; assay type: cell-based, human; details: 3 days
Protocol: as §3

[3] = biological target: P-gp 170 (human P-glycoprotein) (Homo sapiens, UniProt P08183); test: in vitro; details: human
P-gp 170 (human P-glycoprotein), sequence (P08183 whole entry): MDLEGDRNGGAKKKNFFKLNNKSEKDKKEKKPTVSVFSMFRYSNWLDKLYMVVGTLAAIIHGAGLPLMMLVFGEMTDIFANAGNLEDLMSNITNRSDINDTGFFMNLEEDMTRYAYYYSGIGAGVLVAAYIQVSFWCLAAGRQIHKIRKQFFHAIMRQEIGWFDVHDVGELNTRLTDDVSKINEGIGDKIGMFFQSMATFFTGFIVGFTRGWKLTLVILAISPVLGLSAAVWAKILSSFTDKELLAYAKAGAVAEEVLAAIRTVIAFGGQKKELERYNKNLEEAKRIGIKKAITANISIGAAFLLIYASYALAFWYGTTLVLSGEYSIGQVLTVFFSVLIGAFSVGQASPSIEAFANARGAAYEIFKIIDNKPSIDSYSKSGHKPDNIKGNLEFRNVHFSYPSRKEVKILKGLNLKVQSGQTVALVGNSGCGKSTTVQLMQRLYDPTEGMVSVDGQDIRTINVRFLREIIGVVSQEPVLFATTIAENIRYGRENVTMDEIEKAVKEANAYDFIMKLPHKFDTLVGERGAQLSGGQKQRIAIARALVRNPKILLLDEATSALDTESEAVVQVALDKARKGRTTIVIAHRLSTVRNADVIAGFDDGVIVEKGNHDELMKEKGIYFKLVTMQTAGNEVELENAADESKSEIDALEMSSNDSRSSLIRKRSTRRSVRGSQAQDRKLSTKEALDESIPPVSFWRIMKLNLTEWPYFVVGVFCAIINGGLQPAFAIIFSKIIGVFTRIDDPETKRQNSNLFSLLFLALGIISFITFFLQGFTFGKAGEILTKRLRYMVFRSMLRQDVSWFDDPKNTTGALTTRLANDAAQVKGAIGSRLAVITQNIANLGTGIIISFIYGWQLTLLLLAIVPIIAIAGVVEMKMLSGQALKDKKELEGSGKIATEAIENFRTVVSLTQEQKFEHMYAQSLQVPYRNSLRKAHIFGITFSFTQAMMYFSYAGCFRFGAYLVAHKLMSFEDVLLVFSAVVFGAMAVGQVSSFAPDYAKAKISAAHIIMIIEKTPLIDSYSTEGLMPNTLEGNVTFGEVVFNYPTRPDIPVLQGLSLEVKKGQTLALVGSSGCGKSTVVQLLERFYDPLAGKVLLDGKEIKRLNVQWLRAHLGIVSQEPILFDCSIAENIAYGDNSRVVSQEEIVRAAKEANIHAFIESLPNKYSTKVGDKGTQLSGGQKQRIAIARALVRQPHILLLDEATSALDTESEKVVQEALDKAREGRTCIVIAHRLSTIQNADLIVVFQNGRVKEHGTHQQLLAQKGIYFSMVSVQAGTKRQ
From the text: as §1, §2

P-gp 170 [4] = biological target: T1, P-gp 170; test: Inhibitory activity of Scute and its components against P-gp 170 efflux action (previous study)

T1 sequence (P08183 whole entry): as above
P-gp, sequence (P08183 whole entry): as above

**Q.** For CCOc1cc2oc(-c3ccccc3)cc(=O)c2c(OC)c1OCC, which melting point is on record?
**A.** 126 to 128 °C

**Q.** With O=c1cc(-c2ccccc2)oc2cc(OCc3ccccc3)cc(O)c12 [7-benzoxy-5-hydroxyflavone] as the compound, how does the “Amax / drug accumulation as compared to cyclosporin A” value (P-gp) read?
**A.** 25%

**Q.** For O=c1cc(-c2ccccc2)oc2cc(O)c(O)c(O)c12 [Compound 1, baicalein], which “anti-P-gp 170 activity in words” value (P-gp 170 [1]) is on record?
**A.** active component

**Q.** With CC(=O)Oc1c(O)cc2oc(-c3ccccc3)cc(=O)c2c1O [Compound 2, 6-Acetoxy-5,7-dihydroxyflavone] as the compound, how does the “EC50 relative to the parental compound (baicalein)” value (P-gp 170 [2]) read?
**A.** one-fourth

**Q.** And the melting point?
**A.** 205 to 207 °C

**Q.** For CC(=O)Oc1cc2oc(-c3ccccc3)cc(=O)c2c(O)c1OC(C)=O [Compound 3, 6,7-Diacetoxy-5-hydroxyflavone], which “EC50 relative to the parental compound (baicalein)” value (P-gp 170 [2]; KB/MDR cells) is on record?
**A.** one-fourth

**Q.** With COc1cc2oc(-c3ccccc3)cc(=O)c2c(OC)c1OC(C)=O [Compound 5, 6-Acetoxy-5,7-dimethoxyflavone] as the compound, how does the melting point read?
**A.** 208 to 210 °C

**Q.** With COc1cc2oc(-c3ccccc3)cc(=O)c2c(OC)c1OC [Compound 6, 5,6,7-Trimethoxyflavone] as the compound, how does the EC50 (P-gp 170 [2]) read?
**A.** 4600 nM

**Q.** Which EC50 (P-gp 170 [2]) does the source give for COc1cc2oc(-c3ccccc3)cc(=O)c2c(O)c1OC [Compound 8, 5-Hydroxy-6,7-dimethoxyflavone] here?
**A.** 5500 nM

**Q.** What does the source list for CC(=O)Oc1cc2oc(-c3ccccc3)cc(=O)c2c(OCc2ccccc2)c1OC(C)=O [Compound 9, 6,7-Diacetoxy-5-(benzoxy)flavone]?
**A.** anti-P-gp 170 efflux activity (EC50, Amax) in words (P-gp 170 [2]): low EC50 but higher Amax in comparison with baicalein; melting point: 175 to 177 °C

**Q.** With CC(=O)Oc1cc2oc(-c3ccccc3)cc(=O)c2c(O)c1OCc1ccccc1 [Compound 10, 7-Acetoxy-6-(benzoxy)-5-hydroxyflavone] as the compound, how does the “anti-P-gp 170 efflux activity (EC50, Amax) in words” value (“anti-P-gp 170 efflux activity” for short) (P-gp 170 [2]) read?
**A.** low EC50 but higher Amax in comparison with baicalein

**Q.** With COc1c2c(cc3oc(-c4ccccc4)cc(=O)c13)OC(c1ccccc1)(c1ccccc1)O2 [Compound 13, 6,7-(Diphenylmethylenedioxy)-5-methoxyflavone] as the compound, how does the “anti-P-gp 170 efflux activity” value (P-gp 170 [2]) read?
**A.** decreased

**Q.** And the cytotoxicity in words (KB cells)?
**A.** decreased

**Q.** What about the cytotoxicity in words (KB/MDR cells) of the same compound?
**A.** decreased

**Q.** Which results are given for CC(=O)Oc1c(OCc2ccccc2)cc2oc(-c3ccccc3)cc(=O)c2c1OC(C)=O [Compound 14, 5,6Diacetoxy-7-(benzoxy)flavone]?
**A.** anti-P-gp 170 efflux activity (EC50, Amax) in words (P-gp 170 [2]): low EC50 but higher Amax in comparison with baicalein; melting point: 174 to 175 °C

**Q.** With O=c1cc(-c2ccccc2)oc2cc(O)c(OCc3ccccc3)c(O)c12 [Compound 15, 6-(Benzoxy)-5,7-dihydroxyflavone] as the compound, how does the “anti-P-gp 170 efflux activity” value (P-gp 170 [2]) read?
**A.** low EC50 but higher Amax in comparison with baicalein

**Q.** With O=c1cc(-c2ccccc2)oc2cc(OCc3ccccc3)c(OCc3ccccc3)c(O)c12 [Compound 16, 6,7-(Dibenzoxy)-5-hydroxy-flavone] as the compound, how does the cytotoxicity in words (KB cells) read?
**A.** decreased and lost

**Q.** And the cytotoxicity in words (KB/MDR cells)?
**A.** decreased and lost

**Q.** What does the source list for CCCOc1c(O)cc2oc(-c3ccccc3)cc(=O)c2c1O [Compound 17, 5,7-Dihydroxy-6-propoxyflavone]?
**A.** EC50 (P-gp 170 [2]): 2000 nM; Amax (maximum accumulation of intracellular vinblastine), fold higher than control (P-gp 170 [2]): 9 fold; melting point: 162 to 163 °C

**Q.** With CCCOc1cc2oc(-c3ccccc3)cc(=O)c2c(O)c1OCCC [Compound 18, 5-Hydroxy-6,7-dipropoxyflavone] as the compound, how does the “Amax (maximum accumulation of intracellular vinblastine), fold higher than control” value (P-gp 170 [2]) read?
**A.** 10 fold

**Q.** What about the EC50 at 60 min [3] of the same compound?
**A.** 1400 nM

**Q.** Which EC50 (P-gp 170 [2]) does the source give for CCCOc1c(OC)cc2oc(-c3ccccc3)cc(=O)c2c1O [Compound 21, 5-Hydroxy-7-methoxy-6-propoxyflavone] here?
**A.** 1200 nM

**Q.** What about the “Amax (maximum accumulation of intracellular vinblastine), fold higher than control” value (P-gp 170 [2]) of the same compound?
**A.** 9 fold

**Q.** For CCCOc1cc2oc(-c3ccccc3)cc(=O)c2c(OC)c1OCCC [Compound 23, 5-Methoxy-6,7-dipropoxyflavone], which EC50 (P-gp 170 [2]) is on record?
**A.** 900 nM

**Q.** Which results are given for CC(=O)Oc1c(OC(C)=O)c(O)c2c(=O)cc(-c3ccccc3)oc2c1Br [Compound 24, 6,7-Diacetoxy-8-bromo-5-hydroxyflavone]?
**A.** anti-P-gp 170 efflux activity (EC50, Amax) in words (P-gp 170 [2]): less favorable activity against P-gp 170 activity than compound 3; melting point: 244 to 246 °C

**Q.** Which results are given for O=c1cc(-c2ccccc2)oc2c(Br)c(O)c(O)c(O)c12 [Compound 25, 8-Bromo-5,6,7-trihydroxyflavone]?
**A.** anti-P-gp 170 efflux activity (EC50, Amax) in words (P-gp 170 [2]): Amax did not change; EC50 at 60 min [3]: 15000 nM

**Q.** For CCOc1c(O)cc2oc(-c3ccccc3)cc(=O)c2c1O [Compound 32, 6-Ethoxy-5,7-dihydroxyflavone], which EC50 (P-gp 170 [2]) is on record?
**A.** 2300 nM

**Q.** Which EC50 (P-gp 170 [2]) does the source give for CCOc1cc2oc(-c3ccccc3)cc(=O)c2c(O)c1OCC [Compound 33, 6,7-Diethoxy-5-hydroxyflavone] here?
**A.** 1800 nM

**Q.** For CCOc1c(OC)cc2oc(-c3ccccc3)cc(=O)c2c1O [Compound 38, 6-Ethoxy-5-hydroxy-7-methoxyflavone], which melting point is on record?
**A.** 133 to 134 °C

**Q.** For CCCCOc1cc2oc(-c3ccccc3)cc(=O)c2c(O)c1OCCCC [Compound 45, 6,7-Dibutoxy-5-hydroxyflavone], which melting point is on record?
**A.** 116 to 117 °C

**Q.** For CCCCOc1cc2oc(-c3ccccc3)cc(=O)c2c(OC)c1OCCCC [Compound 46, 6,7-Dibutoxy-5-methoxyflavone], which melting point is on record?
**A.** 103 to 105 °C

**Q.** Which “anti-P-gp 170 activity in words” value (P-gp 170 [1]) does the source give for COc1c(O)cc(O)c2c(=O)cc(-c3ccccc3)oc12 [wogonin, 5,7-dihydroxy-8-methoxyflavone] here?
**A.** lack inhibitory activity

**Q.** With COc1c(O[C@@H]2O[C@H](C(=O)O)[C@@H](O)[C@H](O)[C@H]2O)cc(O)c2c(=O)cc(-c3ccccc3)oc12 [wogonoside] as the compound, how does the “anti-P-gp 170 activity in words” value (P-gp 170 [4]) read?
**A.** lack inhibitory activity
